{"source": "paper PMC2395599", "about": "“Low Dose Histone Deacetylase Inhibitor, Depsipeptide (FR901228), Promotes Adenoviral Transduction in Human Rhabdomyosarcoma Cell Lines” (Sarcoma, 2004)", "key": {"[1]": {"test_system": "acetylated histone H3 in CTR cells", "assay": "Western blot analysis for histone H3 acetylation", "type": "cell-based, human", "conditions": "CTR cell line, 0.5 ng/ml, 72 h, histone H3 loading control", "procedure": "(§1) Sarcoma, March 2004, VOL. 8, NO. […] Methods. […] Results. […] Conclusions. […] Human av integrin primers:8 sense 50 -[…] AGT and antisense 50 -CAGTG[…] […] Cells were harvested after 72 h of treatment. Cell number was determined using a colorimetric MTT assay. […] The cells were replenished with complete media. […] References 1. […] Science 1997; 275: 1320-3. 2. […] J Virol 2000; 74: 42-8. 3. […] Virology 2000; 268: 382-90. 4. Wickham TJ, Mathias P, Cheresh DA, Nemerow GR. […] Cell 1993; 73: 309-19. 5. […] J Biol Chem 2000; 275: 14729-35. 6. […]. […] Cancer Res 1998; 58: 5738-48. 7. […] Cancer Res 1999; 59: 325-30. 8. […] Cancer Res 2001; 61: 6328-30. 9. […] Cancer Res 2001; 61: 2953-60. 10. […] J Biol Chem 1997; 272: 6479-89. 11."}, "av integrin": {"test_system": "av integrin", "assay": "Semi-quantitative RT-PCR for αv integrin RNA expression in RMS cells", "type": "cell-based, human", "conditions": "0.5 ng/ml, 72 h; for fold av integrin expression: Fig. 3b", "procedure": "as §1"}, "[2]": {"test_system": "adenovirus AdU1 (GFP) uptake in RMS cell lines", "assay": "Adenoviral (AdU1) GFP expression in RMS cell lines pretreated with depsipeptide, Western blot densitometry", "type": "cell-based, human", "conditions": "0.5 ng/ml 72 h pretreatment; for fold GFP expression: Fig. 2b", "procedure": "as §1"}, "[3]": {"test_system": "coxackie and adenovirus receptor (CAR)", "assay": "Semi-quantitative RT-PCR for CAR RNA expression in RMS cells", "type": "cell-based, human", "conditions": "0.5 ng/ml, 72 h; for fold CAR expression: Fig. 3a", "procedure": "as §1"}, "[4]": {"test_system": "RMS cell lines (RD4a, CTR, RH5, RH13, RH18, RH30)", "conditions": "0.5 ng/ml, 72 h, six RMS cell lines, MTT, triplicate, DMSO controls"}, "[5]": {"conditions": "range over four of six RMS cell lines, RT-PCR normalised to GAPDH"}}, "note": "“And” between values parts separate entries of the source, which are not always exact repeats. Equal entries are not always repeated."}
{"smiles": "C/C=C1\\NC(=O)[C@H]2CSSCC/C=C/[C@H](CC(=O)N[C@H](C(C)C)C(=O)N2)OC(=O)[C@H](C(C)C)NC1=O", "note": "[depsipeptide (FR901228), Depsipeptide (FR901228)]", "values": [{"measurement": "acetylated histone H3", "setting": "[1]", "value": "increase in acetylated histone H3"}, {"measurement": "fold av integrin expression", "setting": "av integrin; CTR", "value": "2.2 X and 2 X"}, {"measurement": "fold av integrin expression", "setting": "av integrin; RD4a", "value": 1.3, "unit": "X"}, {"measurement": "fold av integrin expression", "setting": "av integrin; RH5", "value": 6.6, "unit": "X"}, {"measurement": "fold av integrin expression", "setting": "av integrin; RH13", "value": 6.9, "unit": "X"}, {"measurement": "fold av integrin expression", "setting": "av integrin; RH18", "value": 1.5, "unit": "X"}, {"measurement": "fold av integrin expression", "setting": "av integrin; RH30", "value": 1.1, "unit": "X"}, {"measurement": "fold modulation of av integrin expression", "setting": "av integrin; [5]", "value": "1.5-6.9 fold"}, {"measurement": "GFP protein expression", "setting": "[2]; CTR", "value": "No GFP protein expression was detected"}, {"measurement": "fold GFP expression", "setting": "[2]; RD4a", "value": 2.7, "unit": "X"}, {"measurement": "fold GFP expression (adenoviral uptake)", "setting": "[2]; RH5, Fig. 2b and text", "value": "2.6 X and 2.8 X"}, {"measurement": "fold GFP expression", "setting": "[2]; RH13", "value": 2.8, "unit": "X"}, {"measurement": "fold GFP expression", "setting": "[2]; RH18", "value": 7.8, "unit": "X"}, {"measurement": "fold GFP expression", "setting": "[2]; RH30", "value": 8.6, "unit": "X"}, {"measurement": "CAR expression", "setting": "[3]; CTR", "value": "lack of CAR expression"}, {"measurement": "fold CAR expression", "setting": "[3]; RD4a", "value": 4.8, "unit": "X"}, {"measurement": "fold CAR expression", "setting": "[3]; RH5", "value": 1.2, "unit": "X"}, {"measurement": "fold CAR expression", "setting": "[3]; RH13", "value": 3.3, "unit": "X"}, {"measurement": "fold CAR expression", "setting": "[3]; RH18", "value": 2.8, "unit": "X"}, {"measurement": "fold CAR expression", "setting": "[3]; RH30", "value": 8.1, "unit": "X"}, {"measurement": "fold increase in CAR expression compared to untreated cells", "setting": "[3]; [5]", "value": "2.8-8.1 fold"}, {"measurement": "growth inhibition of RMS cells compared to controls", "setting": "[4]", "value": "less than 20%"}]}
